Test results from EP0322396A1, “Benzimidazole derivatives, their preparation and use” (Gerot-Pharmazeutika Gesellschaft m.b.H., priority 1987, dated 1989).

How the values were obtained:
[1] = Tolerability (test not described); assay type: in vivo; settings: compared with the reference Prazosin
[2] = in vivo; settings: mouse, iv, Maus i.v.
[3] = test system: Blutdruck der Ratte; experiment: Blood pressure lowering in the rat after i.v. administration; assay type: in vivo; settings: i.v. 1,0 mg/kg, after 3 hours, compared with Nifedipin and Verapamil at the same dose

## CC(O)CC(=O)N1CCC(n2c(=O)[nH]c3ccccc32)CC1 (stereo not drawn) [Beispiel 1, 1-(3-Hydroxybutyryl)-4-(2-oxo-1-benzimidazolinyl)-piperidin]
[1]
  Verträglichkeit: wesentlich verträglicher als die Vergleichssubstanz

## COC(=O)C1=C(C)NC(C)=C(C(=O)OCCCN2CCC(n3c(=O)[nH]c4ccccc43)CC2)C1c1cccc([N+](=O)[O-])c1 (stereo not drawn) [Beispiel 4, 2,6-Dimethyl-3-{3-(4-(2-oxo-1-benzimidazolinyl)-1-piperidino]-propyloxy-carbonyl}-4-(3-nitro-phenyl)-5-methoxycarbonyl-1,4-dihydropyridin]
[2]
  LD50: 128 mg/kg
[3]
  senkt den Blutdruck der Ratte: noch stärker als Nifedipin oder Verapamil
